Assay results published in paper PMC8912909, “Drug development for the treatment of onchocerciasis: Population pharmacokinetic and adverse events modeling of emodepside” (PLoS Neglected Tropical Diseases, 2022).

Tests used:
[1] = Population pharmacokinetic model (NONMEM) of pooled phase I plasma and DBS concentrations
[2] = Safety analysis: drug-related treatment-emergent adverse events (TEAE) in three phase I studies; format: in vivo, human
Description: For a detailed safety analysis for emodepside, based on the entire safety population (pharmacokinetic sample and placebo arms) of the phase I clinical trials the reader is referred to the recently published article by Gillon et al.. In the present study, the safety analysis and exposure–adverse events analysis was performed on all subjects whom were included in the population pharmacokinetic analysis (n = 142), i.e. all subjects who received at least 1 dose of the study drug as LSF solution, ASD-tablet A or ASD-tablet B. Safety was assessed in terms of incidence of a drug-related TEAE (as assessed by the investigator) and reported as Medical Dictionary for Regulatory Activities (MedDRA) code. A TEAE was defined as an event that emerged during treatment and having been absent pretreatment, or that worsened relative to the pretreatment state.

[3] = human, in vivo, po; cited from earlier work
Description: Currently, emodepside is under clinical development for the treatment of onchocerciasis, following a repurposing strategy and a collaboration agreement between DNDi and Bayer AG [26]. The safety, pharmacokinetics and relative bioavailability of emodepside after oral dosing in healthy male subjects have been evaluated in three phase I clinical trials, including a First-in-Human study. […] The long terminal half-life (> 20 d ...

CYP3A4 = details: has been shown; no reference given; cited from earlier work
[4] = Linear regression of DBS vs. plasma concentrations; design: species or system human; details: DBS concentration = slope × plasma concentration-0.592; r^2 = 0.987, n = 228
Description: Deuterated emodepside-D16 was used as the internal standard.
Supplementary file pntd.0010219.s008.tif: S1 Fig Linear regression analysis (emodepside DBS vs. plasma concentrations). Observations are represented by black open circles, the black solid line represents the line of identity, and the black dotted line represents the linear regression. DBS concentration = 0.605 × plasma concentration-0.592 (r^2 = 0.987, standard error of estimate, SEE = 5.74, n = 228). (TIF) Click here for additional data file.

[5] = inter-compartmental clearance, oral, 75 kg adult, n = 142
[6] = nonparametric bootstrap, 75 kg adult

## CC(C)C[C@H]1C(=O)O[C@H](Cc2ccc(N3CCOCC3)cc2)C(=O)N(C)[C@@H](CC(C)C)C(=O)O[C@H](C)C(=O)N(C)[C@@H](CC(C)C)C(=O)O[C@H](Cc2ccc(N3CCOCC3)cc2)C(=O)N(C)[C@@H](CC(C)C)C(=O)O[C@H](C)C(=O)N1C [emodepside, Emodepside]
[1]; DBS concentration as % of venous plasma concentration, DBS from 12 subjects
  Venous plasma–DBS scaling factor, population estimate (%RSE): 61.8 (2.9) %
[1]; central volume of distribution, oral, 75 kg adult, n = 142
  Vc/F, population estimate (%RSE): 52.4 (3.4) L
[1]; dose range 1–40 mg, 0.012–0.667 mg per kg body weight per day
  Maximum difference in MTT between the lowest and the highest dose: 70%
[1]; [5]
  Q1/F, population estimate (%RSE): 4.60 (5.1) L/h
  Q2/F, population estimate (%RSE): 8.45 (2.9) L/h
[1]; linear, dose range 1–40 mg
  Dose on MTT, population estimate (%RSE): 105 (22.3) % per mg /kg/day
[1]; male, human, in vivo, po
  CL/F: 21.5 mL/min
[1]; mean absorption transit time, oral, reference LSF solution, fasted, 75 kg adult, n = 142 healthy male subjects
  MTT, population estimate (%RSE): 0.488 (3.5) h
[1]; nonparametric bootstrap
  Dose on MTT, bootstrapping median (95% CI): 104.5 (62.9–154) % per mg /kg/day
  Venous plasma–DBS scaling factor, bootstrapping median (95% CI): 61.8 (58.2–65.2) %
[1]; nonparametric bootstrap, 860 successful runs of 1,000, 75 kg adult
  MTT, bootstrapping median (95% CI): 0.489 (0.456–0.521) h
[1]; [6]
  CL/F, bootstrapping median (95% CI): 1.29 (1.18–1.40) L/h
  Q1/F, bootstrapping median (95% CI): 4.60 (4.14–5.04) L/h
  Q2/F, bootstrapping median (95% CI): 8.43 (7.97–8.87) L/h
  Vc/F, bootstrapping median (95% CI): 52.4 (49.2–55.8) L
  Vp1 / F, bootstrapping median (95% CI): 45.1 (38.0–53.4) L
  Vp2/F, bootstrapping median (95% CI): 647 (592–707) L
[1]; present study population, 1–40 mg
  Dose proportionality of exposure: dose-proportional
[1]; reference: fasted state
  Food intake on MTT, population estimate (%RSE): 114 (22.6) %
  Reduction in F when the dose was given together with food: 24.4%
[1]; reference: fasted state, nonparametric bootstrap
  Food intake on MTT, bootstrapping median (95% CI): 114.7 (69.0–168) %
[1]; volume of distribution of peripheral compartment 1, oral, 75 kg adult, n = 142
  Vp1 / F, population estimate (%RSE): 44.4 (8.7) L
[1]; volume of distribution of peripheral compartment 2, oral, 75 kg adult, n = 142
  Vp2/F, population estimate (%RSE): 647 (4.5) L
[2]; all apart from visual impairment in one subject
  Time to resolution of drug-related TEAEs of interest after onset: ≤ 48 h
[2]; all, apart from moderate headaches in two subjects at 40 mg LSF solution
  Nature and severity of drug-related TEAEs: transient in nature and mild in severity
[2]; in vivo
  Lag of drug-related TEAE of interest relative to Tmax, most subjects: 0 to 2.5 h
  Share of drug-related TEAEs of interest occurring at 1–3 h post-dose: 83%
  Time to resolution of visual impairment in one subject: 21 days
[2]; n = 142
  Deaths or severe drug-related TEAEs: no deaths or severe drug-related TEAEs reported
  Subjects with drug-related TEAEs of interest, %: 19.0%
[2]; n = 142, pooled phase I
  Abdominal pain, % of subjects with drug-related TEAE: 0.7%
  Balance disorder, % of subjects with drug-related TEAE: 0.7%
  Cough, % of subjects with drug-related TEAE: 0.7%
  Disorientation, % of subjects with drug-related TEAE: 0.7%
  Disturbance in attention, % of subjects with drug-related TEAE: 0.7%
  Euphoric mood, % of subjects with drug-related TEAE: 1.4%
  Eye disorders, % of subjects with drug-related TEAE: 14.1%
  Eye pain, % of subjects with drug-related TEAE: 0.7%
  Feeling of relaxation, % of subjects with drug-related TEAE: 2.1%
  Gastrointestinal disorders, % of subjects with drug-related TEAE: 2.8%
  General disorders and administration site conditions, % of subjects with drug-related TEAE: 0.7%
  Headache, % of subjects with drug-related TEAE: 4.2%
  Hypervigilance, % of subjects with drug-related TEAE: 0.7%
  Muscle spasms, % of subjects with drug-related TEAE: 0.7%
  Musculoskeletal and connective tissue disorders, % of subjects with drug-related TEAE: 0.7%
  Nausea, % of subjects with drug-related TEAE: 2.1%
  Nervous system disorders, % of subjects with drug-related TEAE: 12.7%
  Nervousness, % of subjects with drug-related TEAE: 0.7%
  Oropharyngeal pain, % of subjects with drug-related TEAE: 0.7%
  Paraesthesia oral, % of subjects with drug-related TEAE: 0.7%
  Photophobia, % of subjects with drug-related TEAE: 1.4%
  Photopsia, % of subjects with drug-related TEAE: 0.7%
  Pigmentation disorder, % of subjects with drug-related TEAE: 0.7%
  Psychiatric disorders, % of subjects with drug-related TEAE: 1.4%
  Respiratory, thoracic and mediastinal disorders, % of subjects with drug-related TEAE: 0.7%
  Sensation of foreign body, % of subjects with drug-related TEAE: 0.7%
  Skin and subcutaneous tissue disorders, % of subjects with drug-related TEAE: 0.7%
  Somnolence, % of subjects with drug-related TEAE: 0.7%
  Vision blurred, % of subjects with drug-related TEAE: 4.9%
  Visual acuity reduced, % of subjects with drug-related TEAE: 0.7%
  Visual impairment, % of subjects with drug-related TEAE: 9.2%
  Vomiting, % of subjects with drug-related TEAE: 0.7%
[2]; n = 142, pooled phase I, oral 1–40 mg
  Subjects with drug-related TEAEs, %: 21.8%
[2]; of n = 142, pooled phase I
  Abdominal pain, subjects experiencing drug-related TEAE: 1
  Balance disorder, subjects experiencing drug-related TEAE: 1
  Cough, subjects experiencing drug-related TEAE: 1
  Disorientation, subjects experiencing drug-related TEAE: 1
  Disturbance in attention, subjects experiencing drug-related TEAE: 1
  Euphoric mood, subjects experiencing drug-related TEAE: 2
  Eye disorders, subjects experiencing drug-related TEAE: 20
  Eye pain, subjects experiencing drug-related TEAE: 1
  Feeling of relaxation, subjects experiencing drug-related TEAE: 3
  Gastrointestinal disorders, subjects experiencing drug-related TEAE: 4
  General disorders and administration site conditions, subjects experiencing drug-related TEAE: 1
  Headache, subjects experiencing drug-related TEAE: 6
  Hypervigilance, subjects experiencing drug-related TEAE: 1
  Muscle spasms, subjects experiencing drug-related TEAE: 1
  Musculoskeletal and connective tissue disorders, subjects experiencing drug-related TEAE: 1
  Nausea, subjects experiencing drug-related TEAE: 3
  Nervous system disorders, subjects experiencing drug-related TEAE: 18
  Nervousness, subjects experiencing drug-related TEAE: 1
  Oropharyngeal pain, subjects experiencing drug-related TEAE: 1
  Paraesthesia oral, subjects experiencing drug-related TEAE: 1
  Photophobia, subjects experiencing drug-related TEAE: 2
  Photopsia, subjects experiencing drug-related TEAE: 1
  Pigmentation disorder, subjects experiencing drug-related TEAE: 1
  Psychiatric disorders, subjects experiencing drug-related TEAE: 2
  Respiratory, thoracic and mediastinal disorders, subjects experiencing drug-related TEAE: 1
  Sensation of foreign body, subjects experiencing drug-related TEAE: 1
  Skin and subcutaneous tissue disorders, subjects experiencing drug-related TEAE: 1
  Somnolence, subjects experiencing drug-related TEAE: 1
  Vision blurred, subjects experiencing drug-related TEAE: 7
  Visual acuity reduced, subjects experiencing drug-related TEAE: 1
  Visual impairment, subjects experiencing drug-related TEAE: 13
  Vomiting, subjects experiencing drug-related TEAE: 1
[2]; of the 27 subjects with TEAE of interest
  Subjects with both eye disorders and nervous system disorders: 41%
[2]; out of 142 subjects
  Subjects with drug-related TEAEs of interest (eye disorders and nervous system disorders), number: 27
  Subjects with drug-related TEAEs, number: 31
[2]; vs. 0% placebo, p=0.13 (two-sided Fisher's exact test)
  Incidence of non drug-related infections and infestations, active treatment arms: 10.5%
[3]
  Terminal half-life: > 20 days
CYP3A4
  Enzyme catalyzing oxidative metabolism: predominantly catalyzed by CYP3A4
[4]
  Slope of linear regression, DBS concentration vs. plasma concentration: 0.605
